According to ChEMBL document CHEMBL1201862, “PubChem BioAssay data set” (2004):
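Compound exposure: 48 hours, 5 concentrations, 96-well plates. GI50 is the concentration that inhibits growth by half.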 Activity calls are given as the source filed them. Cut-off read from the data, not from the text of the source: active = GI50 up to about 1.1 µM and inactive = higher.

How the values were obtained:
Assay in all cases: DTP human tumour cell line panel, 48 h
[1] = test system: SNB-19
[2] = test system: SK-MEL-2
[3] = test system: UO-31
[4] = test system: TK-10
[5] = test system: MDA-MB-435
[6] = test system: RPMI-8226
[7] = test system: OVCAR-3
[8] = test system: NCI-H226
[9] = test system: K562
[10] = test system: A549
[11] = test system: CAKI-1
[12] = test system: A498
[13] = test system: 786-0
[14] = test system: DU-145
[15] = test system: PC-3
[16] = test system: T47D
[17] = test system: HOP-92
[18] = test system: SK-MEL-5
[19] = test system: HCT-116
[20] = test system: UACC-257
[21] = test system: SF-295
[22] = test system: MCF7
[23] = test system: ACHN
[24] = test system: M14
[25] = test system: Hs-578T
[26] = test system: EKVX
[27] = test system: HCT-15
[28] = test system: NCI-H522
[29] = test system: SN12C
[30] = test system: NCI/ADR-RES
[31] = test system: U-251
[32] = test system: MDA-MB-231
[33] = test system: MDA-N
[34] = test system: NCI-H460
[35] = test system: NCI-H23
[36] = test system: MOLT-4
[37] = test system: IGROV-1
[38] = test system: HOP-62
[39] = test system: SK-MEL-28
[40] = test system: BT-549
[41] = test system: CCRF-CEM
[42] = test system: OVCAR-5
[43] = test system: OVCAR-8
[44] = test system: HL-60
[45] = test system: SK-OV-3
[46] = test system: KM12
[47] = test system: SF-268
[48] = test system: Malme-3M
[49] = test system: SNB-75
[50] = test system: LOX IMVI
[51] = test system: SW-620
[52] = test system: COLO 205
[53] = test system: HCC 2998
[54] = test system: SF-539
[55] = test system: RXF 393
[56] = test system: OVCAR-4
[57] = test system: HT-29
[58] = test system: UACC-62
[59] = test system: SR

SMILES: NC1CCN(c2nc3ccccc3c3c2CCCC3)CC1
- GI50 [1]: 8.67 µM (inactive)
- GI50 [2]: 5.12 µM (inactive)
- GI50 [3]: 4.05 µM (inactive)
- GI50 [4]: 10.7 µM (inactive)
- GI50 [5]: 2.2 µM (inactive)
- GI50 [6]: 1.8 µM (inactive)
- GI50 [7]: 11.9 µM (inactive)
- GI50 [8]: 10.2 µM (inactive)
- GI50 [9]: 1.62 µM (inactive)
- GI50 [10]: 9.44 µM (inactive)
- GI50 [11]: 5.77 µM (inactive)
- GI50 [12]: 10.3 µM (inactive)
- GI50 [13]: 3.8 µM (inactive)
- GI50 [14]: 11.9 µM (inactive)
- GI50 [15]: 7.89 µM (inactive)
- GI50 [16]: 2.18 µM (inactive)
- GI50 [17]: 4.99 µM (inactive)
- GI50 [18]: 2.57 µM (inactive)
- GI50 [19]: 4.01 µM (inactive)
- GI50 [20]: 2.1 µM (inactive)
- GI50 [21]: 10.1 µM (inactive)
- GI50 [22]: 3.07 µM (inactive)
- GI50 [23]: 8.87 µM (inactive)
- GI50 [24]: 1.99 µM (inactive)
- GI50 [25]: 20.5 µM (inactive)
- GI50 [26]: 5.9 µM (inactive)
- GI50 [27]: 5.37 µM
- GI50 [28]: 5.73 µM (inactive)
- GI50 [29]: 8.67 µM (inactive)
- GI50 [30]: 12.2 µM (inactive)
- GI50 [31]: 4.59 µM (inactive)
- GI50 [32]: 3.43 µM (inactive)
- GI50 [33]: 2.97 µM (inactive)
- GI50 [34]: 3.5 µM (inactive)
- GI50 [35]: 14.1 µM (inactive)
- GI50 [36]: 2.09 µM (inactive)
- GI50 [37]: 6.41 µM (inactive)
- GI50 [38]: 15.1 µM (inactive)
- GI50 [39]: 2.73 µM (inactive)
- GI50 [40]: 12.7 µM (inactive)
- GI50 [41]: 4.28 µM (inactive)
- GI50 [42]: 6.32 µM (inactive)
- GI50 [43]: 13.2 µM (inactive)
- GI50 [44]: 1.77 µM (inactive)
- GI50 [45]: 12.6 µM (inactive)
- GI50 [46]: 4.07 µM (inactive)
- GI50 [47]: 12.5 µM (inactive)
- GI50 [48]: 7.41 µM (inactive)
- GI50 [49]: 9.93 µM (inactive)
- GI50 [50]: 3.69 µM (inactive)
- GI50 [51]: 2.75 µM (inactive)
- GI50 [52]: 1.67 µM (inactive)
- GI50 [53]: 1.73 µM (inactive)
- GI50 [54]: 3.33 µM (inactive)
- GI50 [55]: 2.33 µM (inactive)
- GI50 [56]: 1.38 µM (inactive)
- GI50 [57]: 2.11 µM (inactive)
- GI50 [58]: 1.95 µM (inactive)

SMILES: C=CCN1CCC2(CC1)NC(=O)c1ccccc1O2
- GI50 [1]: > 100 µM (inactive)
- GI50 [2]: > 100 µM (inactive)
- GI50 [3]: > 100 µM (inactive)
- GI50 [4]: > 100 µM (inactive)
- GI50 [5]: > 100 µM (inactive)
- GI50 [6]: > 100 µM (inactive)
- GI50 [7]: > 100 µM (inactive)
- GI50 [59]: > 100 µM (inactive)
- GI50 [8]: > 100 µM (inactive)
- GI50 [9]: > 100 µM (inactive)
- GI50 [10]: > 100 µM (inactive)
- GI50 [11]: > 100 µM (inactive)
- GI50 [13]: > 100 µM (inactive)
- GI50 [14]: > 100 µM (inactive)
- GI50 [15]: > 100 µM (inactive)
- GI50 [16]: > 100 µM (inactive)
- GI50 [17]: > 100 µM (inactive)
- GI50 [18]: > 100 µM (inactive)
- GI50 [19]: > 100 µM (inactive)
- GI50 [20]: > 100 µM (inactive)
- GI50 [21]: > 100 µM (inactive)
- GI50 [22]: > 100 µM (inactive)
- GI50 [23]: > 100 µM (inactive)
- GI50 [24]: > 100 µM (inactive)
- GI50 [25]: > 100 µM (inactive)
- GI50 [26]: > 100 µM (inactive)
- GI50 [27]: > 100 µM
- GI50 [28]: > 100 µM (inactive)
- GI50 [29]: > 100 µM (inactive)
- GI50 [30]: > 100 µM (inactive)
- GI50 [31]: > 100 µM (inactive)
- GI50 [32]: > 100 µM (inactive)
- GI50 [33]: > 100 µM (inactive)
- GI50 [34]: > 100 µM (inactive)
- GI50 [35]: > 100 µM (inactive)
- GI50 [36]: > 100 µM (inactive)
- GI50 [37]: > 100 µM (inactive)
- GI50 [38]: > 100 µM (inactive)
- GI50 [39]: > 100 µM (inactive)
- GI50 [40]: > 100 µM (inactive)
- GI50 [41]: > 100 µM (inactive)
- GI50 [42]: > 100 µM (inactive)
- GI50 [43]: > 100 µM (inactive)
- GI50 [44]: > 100 µM (inactive)
- GI50 [45]: > 100 µM (inactive)
- GI50 [46]: > 100 µM (inactive)
- GI50 [47]: > 100 µM (inactive)
- GI50 [48]: > 100 µM (inactive)
- GI50 [49]: > 100 µM (inactive)
- GI50 [50]: > 100 µM (inactive)
- GI50 [51]: > 100 µM (inactive)
- GI50 [52]: > 100 µM (inactive)
- GI50 [53]: > 100 µM (inactive)
- GI50 [54]: > 100 µM (inactive)
- GI50 [55]: > 100 µM (inactive)
- GI50 [56]: > 100 µM (inactive)
- GI50 [57]: > 100 µM (inactive)
- GI50 [58]: > 100 µM (inactive)

SMILES: CCOC(=O)c1cc(=O)oc2c1N(C)c1ncccc1N2
- GI50 [1]: > 100 µM (inactive)
- GI50 [2]: > 100 µM (inactive)
- GI50 [3]: 50.9 µM (inactive)
- GI50 [4]: > 100 µM (inactive)
- GI50 [5]: > 100 µM (inactive)
- GI50 [6]: > 100 µM (inactive)
- GI50 [7]: > 100 µM (inactive)
- GI50 [59]: 63.4 µM (inactive)
- GI50 [8]: > 100 µM (inactive)
- GI50 [9]: > 100 µM (inactive)
- GI50 [10]: > 100 µM (inactive)
- GI50 [11]: > 100 µM (inactive)
- GI50 [12]: > 100 µM (inactive)
- GI50 [13]: > 100 µM (inactive)
- GI50 [14]: > 100 µM (inactive)
- GI50 [15]: > 100 µM (inactive)
- GI50 [16]: > 100 µM (inactive)
- GI50 [19]: > 100 µM (inactive)
- GI50 [20]: > 100 µM (inactive)
- GI50 [21]: > 100 µM (inactive)
- GI50 [22]: > 100 µM (inactive)
- GI50 [23]: 86.9 µM (inactive)
- GI50 [24]: > 100 µM (inactive)
- GI50 [25]: > 100 µM (inactive)
- GI50 [27]: > 100 µM
- GI50 [29]: > 100 µM (inactive)
- GI50 [30]: > 100 µM (inactive)
- GI50 [31]: > 100 µM (inactive)
- GI50 [32]: 69.5 µM (inactive)
- GI50 [33]: > 100 µM (inactive)
- GI50 [34]: > 100 µM (inactive)
- GI50 [35]: > 100 µM (inactive)
- GI50 [36]: > 100 µM (inactive)
- GI50 [38]: > 100 µM (inactive)
- GI50 [39]: > 100 µM (inactive)
- GI50 [40]: > 100 µM (inactive)
- GI50 [42]: > 100 µM (inactive)
- GI50 [43]: > 100 µM (inactive)
- GI50 [45]: > 100 µM (inactive)
- GI50 [46]: > 100 µM (inactive)
- GI50 [47]: > 100 µM (inactive)
- GI50 [49]: > 100 µM (inactive)
- GI50 [50]: > 100 µM (inactive)
- GI50 [51]: > 100 µM (inactive)
- GI50 [52]: > 100 µM (inactive)
- GI50 [53]: > 100 µM (inactive)
- GI50 [55]: > 100 µM (inactive)
- GI50 [56]: > 100 µM (inactive)
- GI50 [58]: > 100 µM (inactive)
